# Reference: patent publication US8785483B2, “Methods for treating COPD” (The Board of Regents of the University of Texas System, priority 2010, dated 2014)
# Legend:
# [1] = tested on: Muc5AC; test: Western blot of Muc5AC in IL-13-treated SAEC monolayer; type: cell-based, human; settings: IL-13 48 h, immunoblotting
# Description: (§1) FIGS. 6A-6B. AR inhibition prevents IL-13-induced expression of Mucin and transcription factor SPDEF in airway epithelial cell monolayer. (A) The airway epithelial cell monolayer at ALI was serum starved without or with fidarestat and incubated with IL-13 for 18 h. Total RNA was isolated and subsequently RT-PCR was performed to assess the expression of Muc5AC and SPDEF. The bar diagrams show densitometric analysis of the corresponding blots (n=4). *p<0.001 vs Control; **p<0.001 vs IL-13; (B) The monolayer of ciliated airway cells at ALI was treated with AR inhibitor for 24 h and subsequently incubated with IL-13 for 24 or 48 h. At the end of incubation, cell lysate was prepared and subjected to western blotting using antibodies against Muc5AC, Muc5B, and SPDEF. The membranes were stripped and re-probed with antibodies against GAPDH to show the equal loading of protein. A representative blot is shown (n=4). *p<0.0001 vs Control; **p<0.001 vs IL-13. […] Protein levels were determined using Bradford reagent (Biorad, Hercules, Calif.). […] The blots were then washed, exposed to HRP-conjugated secondary antibodies (1:5,000 dilution) for 1 h, and the antigen-antibody complex was detected by enhanced chemiluminescence (Amersham Pharmacia Biotech, Piscataway, N.J., USA). […]
# [2] = tested on: goblet cell metaplasia in mice lungs; test: RWE-induced goblet cell metaplasia in mice lungs (PAS stain); type: in vivo; settings: RWE-sensitized and challenged mice, fidarestat 7 mg/kg body wt/day in drinking water, 72 h after challenge
# Description: FIGS. 10A-10B. Inhibition or deficiency of AR prevents RWE-induced goblet cell metaplasia in mice lungs. RWE-sensitized normal and AR-null mice were challenged with RWE and 72 h later the lungs were harvested from mice treated without or with AR inhibitor (A) or AR-null mice (B), perfused and fixed with 4% paraformaldehyde and embedded in paraffin. The sections were stained with PAS stain and observed under light microscope and photomicrographs were acquired. A representative photomicrograph from each group is shown (n=4). Magnification 200× (A); 400× (B).
# Wild type C57BL/6 and Balb/cJ mice were purchased from Harlan Sprague-Dawley (San Diego, Calif., USA) and AR null mice on C57BL/6 background were bread by us at Animal resource center, UTMB, Galveston, Tex. Six-eight weeks old female mice were sensitized with RWE as previously described (Hwang et al., FASEB J. 19: 795-797, 2005). Briefly, mice were sensitized with two intraperitoneal administrations of 100 μl of endotoxin-free RWE (150 μg) combined with Alum adjuvant (1 mg) in a 3:1 ratio (v/v), on days 0 and 4. On day 11, mice (n=6) were challenged intranasally with RWE (100 μg). A parallel group of mice received fidarestat (7 mg/kg body wt/day) in drinking water from one day before the challenge. Control groups of mice were challenged with equivalent volumes of PBS. […]
# [3] = tested on: SPDEF; test: Western blot of SPDEF in IL-13-treated SAEC monolayer; type: cell-based, human; settings: airway epithelial monolayer, IL-13 24 and 48 h, immunoblotting
# Description: as §1
structure (smiles),measurement,setting,value
"NC(=O)[C@@H]1C[C@]2(NC(=O)NC2=O)c2cc(F)ccc2O1 [fidarestat, (2S,4S)-2-aminoformyl-6-fluoro-spiro[chroman-4,4′-imidazolidine]-2′,5′-dione]",prevention of IL-13-induced increase in Muc5AC protein,[1],~75%
same,PAS positive cells in the airway,[2],absent
same,prevention of IL-13-induced increase in SPDEF protein,[3],~50%
